Measured values: PubChem BioAssay AID1963985 (Molecular Pharmacology Branch, DTP, NCI, 2024)

Tested on: 252836-082-R-J2-PDC tumor spheroids, viability
Assay: Anticancer human tumor 252836-082-R-J2-PDC patient-derived head and neck squamous cell carcinoma cell line growth inhibition [PI3K]
Settings: spheroids with HUVEC and MSC; for viability, T/C: stronger effect = lower value; active = viability on the fitted dose curve at most 10% of control; inactive = the rest
Procedure, shortened: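 Agents were dosed from a top concentration near clinical Cmax (otherwise 10 microM) in half-log decrements, alone or combined with PI3K inhibitors. The spheroids contain tumor cells plus endothelial (HUVEC) and MSC stroma; viability is measured.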

[1] = curve of first compound, second compound 0.00316 µM
[2] = curve of first compound, second compound 0.01 µM
[3] = curve of first compound, second compound 0.0316 µM
[4] = curve of first compound, second compound 0.1 µM
[5] = curve of first compound, second compound 0.316 µM
[6] = curve of first compound, second compound 1 µM
[7] = second compound 0.00316 µM, first compound 0.0316 µM
[8] = second compound 0.00316 µM, first compound 0.1 µM
[9] = second compound 0.00316 µM, first compound 0.316 µM
[10] = second compound 0.00316 µM, first compound 1 µM
[11] = second compound 0.00316 µM, first compound 3.16 µM
[12] = second compound 0.00316 µM, first compound 10 µM
[13] = second compound 0.01 µM, first compound 0.0316 µM
[14] = second compound 0.01 µM, first compound 0.1 µM
[15] = second compound 0.01 µM, first compound 0.316 µM
[16] = second compound 0.01 µM, first compound 1 µM
[17] = second compound 0.01 µM, first compound 3.16 µM
[18] = second compound 0.01 µM, first compound 10 µM
[19] = second compound 0.0316 µM, first compound 0.0316 µM
[20] = second compound 0.0316 µM, first compound 0.1 µM
[21] = second compound 0.0316 µM, first compound 0.316 µM
[22] = second compound 0.0316 µM, first compound 1 µM
[23] = second compound 0.0316 µM, first compound 3.16 µM
[24] = second compound 0.0316 µM, first compound 10 µM
[25] = second compound 0.1 µM, first compound 0.0316 µM
[26] = second compound 0.1 µM, first compound 0.1 µM
[27] = second compound 0.1 µM, first compound 0.316 µM
[28] = second compound 0.1 µM, first compound 1 µM
[29] = second compound 0.1 µM, first compound 3.16 µM
[30] = second compound 0.1 µM, first compound 10 µM
[31] = second compound 0.316 µM, first compound 0.0316 µM
[32] = second compound 0.316 µM, first compound 0.1 µM
[33] = second compound 0.316 µM, first compound 0.316 µM
[34] = second compound 0.316 µM, first compound 1 µM
[35] = second compound 0.316 µM, first compound 3.16 µM
[36] = second compound 0.316 µM, first compound 10 µM
[37] = second compound 1 µM, first compound 0.0316 µM
[38] = second compound 1 µM, first compound 0.1 µM
[39] = second compound 1 µM, first compound 0.316 µM
[40] = second compound 1 µM, first compound 1 µM
[41] = second compound 1 µM, first compound 3.16 µM
[42] = second compound 1 µM, first compound 10 µM
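Note: spheroids exposed to agents for seven days before readout.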
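Throughout, for viability, T/C: percent of vehicle DMSO control viability so 100% = untreated growth.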

CNC(=O)c1ccc(N2C(=S)N(c3ccc(C#N)c(C(F)(F)F)c3)C(=O)C2(C)C)cc1F + CC(Nc1ccc2c(c1)OCCn1cc(N3C(=O)OCC3C(F)F)nc1-2)C(N)=O
> 10 µM: IC50 [1] | IC50 [2] | IC50 [3] | IC50 [4] | IC50 [5]
< 0.0316 µM: IC50 [6]
inactive: viability, T/C [7] 97% | viability, T/C [8] 84.2% | viability, T/C [9] 92.5% | viability, T/C [10] 91.6% | viability, T/C [11] 102% | viability, T/C [12] 84.1% | viability, T/C [13] 96.5% | viability, T/C [14] 99.9% | viability, T/C [15] 82% | viability, T/C [16] 89.1% | viability, T/C [17] 103% | viability, T/C [18] 98% | viability, T/C [19] 90.8% | viability, T/C [20] 81.7% | viability, T/C [21] 80.2% | viability, T/C [22] 77.1% | viability, T/C [23] 75.1% | viability, T/C [24] 78.9% | viability, T/C [25] 68.9% | viability, T/C [26] 69.5% | viability, T/C [27] 73.7% | viability, T/C [28] 66% | viability, T/C [29] 61.5% | viability, T/C [30] 67.9% | viability, T/C [31] 55.4% | viability, T/C [32] 58.3% | viability, T/C [33] 53% | viability, T/C [34] 51.9% | viability, T/C [35] 61.9% | viability, T/C [36] 52.3% | viability, T/C [37] 46.3% | viability, T/C [38] 44% | viability, T/C [39] 43.2% | viability, T/C [40] 50.5% | viability, T/C [41] 51.4% | viability, T/C [42] 45.8%

CC1(C)CCC(CN2CCN(c3ccc(C(=O)NS(=O)(=O)c4ccc(NCC5CCOCC5)c([N+](=O)[O-])c4)c(Oc4cnc5[nH]ccc5c4)c3)CC2)=C(c2ccc(Cl)cc2)C1 + CC(Nc1ccc2c(c1)OCCn1cc(N3C(=O)OCC3C(F)F)nc1-2)C(N)=O
< 0.0316 µM: IC50 [6]
5 µM: IC50 [3]
active: viability, T/C [12] 6.79% | viability, T/C [24] 5.56% | viability, T/C [30] 4.08% | viability, T/C [36] 6.25%
3.92 µM: IC50 [4]
inactive: viability, T/C [7] 95.4% | viability, T/C [8] 81.6% | viability, T/C [9] 93.3% | viability, T/C [10] 101% | viability, T/C [11] 99% | viability, T/C [13] 98.6% | viability, T/C [14] 87% | viability, T/C [15] 90.1% | viability, T/C [16] 90.9% | viability, T/C [17] 84.7% | viability, T/C [18] 12.2% | viability, T/C [19] 77.6% | viability, T/C [20] 83.8% | viability, T/C [21] 76.5% | viability, T/C [22] 68.9% | viability, T/C [23] 90.1% | viability, T/C [25] 78.7% | viability, T/C [26] 64.9% | viability, T/C [27] 66.1% | viability, T/C [28] 73% | viability, T/C [29] 59.8% | viability, T/C [31] 70.8% | viability, T/C [32] 55.3% | viability, T/C [33] 54.3% | viability, T/C [34] 56.4% | viability, T/C [35] 54.3% | viability, T/C [37] 47.5% | viability, T/C [38] 49.6% | viability, T/C [39] 49.7% | viability, T/C [40] 47.9% | viability, T/C [41] 39.7% | viability, T/C [42] 15.7%
5.66 µM: IC50 [1]
5.49 µM: IC50 [2]
3.46 µM: IC50 [5]

CCN1CCN(Cc2ccc(Nc3ncc(F)c(-c4cc(F)c5nc(C)n(C(C)C)c5c4)n3)nc2)CC1
inactive: viability, T/C (compound 0.00316 µM) 99.2% [middle of 4 runs] | viability, T/C (compound 0.01 µM) 91.3% [middle of 4 runs] | viability, T/C (compound 0.0316 µM) 94.5% [middle of 4 runs] | viability, T/C (compound 0.1 µM) 95.2% [middle of 4 runs] | viability, T/C (compound 0.316 µM) 91.5% [middle of 4 runs]
> 1 µM: IC50 (curve of compound)

C#Cc1c(F)ccc2cc(O)cc(-c3ncc4c(N5CC6CCC(C5)N6)nc(OCC56CCCN5CC(F)C6)nc4c3F)c12 (configuration not stated) + CC(Nc1ccc2c(c1)OCCn1cc(N3C(=O)OCC3C(F)F)nc1-2)C(N)=O
3.73 µM: IC50 [4]
> 10 µM: IC50 [1] | IC50 [2] | IC50 [3]
< 0.0316 µM: IC50 [6]
0.0817 µM: IC50 [5]
inactive: viability, T/C [7] 91.8% | viability, T/C [8] 72.8% | viability, T/C [9] 76.1% | viability, T/C [10] 82.2% | viability, T/C [11] 72% | viability, T/C [12] 50.7% | viability, T/C [13] 83.7% | viability, T/C [14] 73.6% | viability, T/C [15] 78.6% | viability, T/C [16] 71% | viability, T/C [17] 75.6% | viability, T/C [18] 59.5% | viability, T/C [19] 74.6% | viability, T/C [20] 67.4% | viability, T/C [21] 68.9% | viability, T/C [22] 58.8% | viability, T/C [23] 56% | viability, T/C [24] 56.1% | viability, T/C [25] 62.9% | viability, T/C [26] 56.3% | viability, T/C [27] 61.9% | viability, T/C [28] 61.1% | viability, T/C [29] 49.3% | viability, T/C [30] 38.9% | viability, T/C [31] 56% | viability, T/C [32] 45.9% | viability, T/C [33] 46.7% | viability, T/C [34] 38% | viability, T/C [35] 39.4% | viability, T/C [36] 32.6% | viability, T/C [37] 46.1% | viability, T/C [38] 38.7% | viability, T/C [39] 45.1% | viability, T/C [40] 36.6% | viability, T/C [41] 33.2% | viability, T/C [42] 26.6%
